Measurements published in ChEMBL document CHEMBL4725427, “Synthesis and SAR Studies of 1H-Pyrrolo[2,3-b]pyridine-2-carboxamides as Phosphodiesterase 4B (PDE4B) Inhibitors” (ACS Med Chem Lett, 2020).
Blank lines part the entries; values can stand above or below the compound they belong to.

Experiments:
[1] = molecular target: T1, 3',5'-cyclic-AMP phosphodiesterase 4B (Homo sapiens, UniProt Q07343); test: Inhibition of recombinant human C-terminal His-tagged N-terminal GST-tagged PDE4B2 expressed in baculovirus infected Sf9 cells at 10 uM by radioligand binding assay relative to control
T1 sequence (Q07343 whole entry): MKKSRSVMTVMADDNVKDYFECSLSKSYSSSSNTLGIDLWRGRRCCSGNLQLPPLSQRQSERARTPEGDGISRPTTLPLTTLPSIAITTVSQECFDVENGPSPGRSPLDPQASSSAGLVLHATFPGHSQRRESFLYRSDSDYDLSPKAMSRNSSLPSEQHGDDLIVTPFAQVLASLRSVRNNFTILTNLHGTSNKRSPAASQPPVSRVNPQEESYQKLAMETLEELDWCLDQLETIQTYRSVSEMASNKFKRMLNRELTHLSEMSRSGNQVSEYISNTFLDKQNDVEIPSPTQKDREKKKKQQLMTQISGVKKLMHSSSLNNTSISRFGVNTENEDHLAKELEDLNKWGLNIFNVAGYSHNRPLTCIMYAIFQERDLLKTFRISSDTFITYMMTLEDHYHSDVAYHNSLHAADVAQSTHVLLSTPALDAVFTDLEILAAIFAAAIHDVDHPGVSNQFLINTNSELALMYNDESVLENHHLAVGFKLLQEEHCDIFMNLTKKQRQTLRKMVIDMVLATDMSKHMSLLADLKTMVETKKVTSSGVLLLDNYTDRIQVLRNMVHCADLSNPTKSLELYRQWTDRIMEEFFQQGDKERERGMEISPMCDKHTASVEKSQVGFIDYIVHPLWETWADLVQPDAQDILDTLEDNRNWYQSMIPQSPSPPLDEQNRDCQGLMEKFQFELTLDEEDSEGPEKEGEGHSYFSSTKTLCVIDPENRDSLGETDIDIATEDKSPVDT

[2] = Effect on TNFalpha production in C57BL/6 mouse bone marrow derived Macrophage at 1 to 10 uM incubated for 30 mins by ELISA; conditions: 0.5 h
[3] = Metabolic stability in mouse liver microsomes assessed as intrinsic clearance; assay type: ADME, Microsome; conditions: read-out: CLH
[4] = Metabolic stability in human liver microsomes assessed as intrinsic clearance; assay type: ADME, Microsome; conditions: read-out: CLH
[5] = Protein binding in mouse plasma assessed as unbound fraction; assay type: ADME, cell-free
[6] = Protein binding in human plasma assessed as unbound fraction; assay type: ADME, cell-free
[7] = molecular target: T1, 3',5'-cyclic-AMP phosphodiesterase 4B; test: Inhibition of recombinant human C-terminal His-tagged N-terminal GST-tagged PDE4B2 expressed in baculovirus infected Sf9 cells by radioligand binding assay; assay type: cell-based

inhibition [1]: 67%
SMILES: COc1ccc(-n2c(C(=O)N3CC(F)C3)cc3cccnc32)cc1

inhibition [1]: 77%
SMILES: COc1ccc(-n2c(C(=O)N3CC(F)C3)cc3cccnc32)cc1F

inhibition [1]: 47%
SMILES: N#Cc1c(F)cc(-n2c(C(=O)NC3CC(F)(F)C3)cc3cccnc32)cc1F

SMILES: COc1ccc(C2CNC(=O)C2)cc1OC1CCCC1 (stereo not drawn) [ROLIPRAM]
Activity [2]: Non-Toxic

SMILES: O=C(c1cc2cccnc2n1Cc1ccc(Cl)c(Cl)c1)N1CC(F)C1
inhibition [1]: 72%

SMILES: O=C(c1cc2cccnc2n1-c1ccc(Cl)c(F)c1)N1CC(F)C1
Activity [2]: Non-Toxic

inhibition [1]: 46%
SMILES: Cc1ccc(-c2c(C(=O)NC3CC3)sc3nccnc23)cc1Cl

inhibition [1]: 58%
SMILES: N#Cc1c(F)cc(-n2c(C(=O)NC3CC(F)C3)cc3cccnc32)cc1F (stereo not drawn)

inhibition [1]: 58%
SMILES: O=C(c1cc2ccccc2n1-c1ccc(Cl)c(Cl)c1)N1CC(F)C1

CLint scaled [3]: 150 mL/min/kg
CLint scaled [4]: 29.6 mL/min/kg
fraction unbound [5]: 0.056
fraction unbound [6]: 0.085
SMILES: Cc1ccc(-n2c(C(=O)NC3CC3)nc3cccnc32)cc1Cl

inhibition [1]: 23%
SMILES: O=C(NC1CC(F)(F)C1)c1cc2cccnc2n1-c1ccc(Cl)c(Cl)c1

inhibition [1]: 41%
SMILES: N#Cc1c(F)cc(-n2c(C(=O)N3CC(F)(F)C3)cc3cccnc32)cc1F

inhibition [1]: 56%
SMILES: Cc1ccc(-c2c(C(=O)NC3CC3)n(C)c3cccnc23)cc1Cl

inhibition [1]: 47%
SMILES: O=C(c1cc2cccnc2n1-c1ccc(Cl)cc1)N1CC(F)(F)C1

inhibition [1]: 37%
SMILES: O=C(c1cc2cccnc2n1-c1ccnc(F)c1)N1CC(F)(F)C1

IC50 [7]: 9.4 µM
SMILES: Cc1ccc(-n2c(C(=O)NC3CC(F)C3)cc3cccnc32)cc1Cl (stereo not drawn)
Activity [2]: Non-Toxic

IC50 [7]: 4.2 µM
SMILES: O=C(NC1CC1)c1nn2ccccc2c1-c1ccc(Cl)c(Cl)c1

inhibition [1]: 70%
SMILES: O=C(NCc1ccco1)c1cc2cccnc2n1-c1ccc(Cl)c(Cl)c1

inhibition [1]: 35%
SMILES: COc1c(F)cc(-n2c(C(=O)N3CC(F)(F)C3)cc3cccnc32)cc1F

inhibition [1]: 48%
SMILES: O=C(c1cc2cccnc2n1-c1ccc(Cl)c(F)c1)N1CC(F)(F)C1

CLint scaled [3]: < 49.5 mL/min/kg
CLint scaled [4]: < 23.1 mL/min/kg
fraction unbound [5]: 0.393
fraction unbound [6]: 0.474
SMILES: O=C(c1cc2cccnc2n1-c1ccnc(F)c1)N1CC(F)C1

CLint scaled [3]: < 49.5 mL/min/kg
CLint scaled [4]: < 23.1 mL/min/kg
fraction unbound [5]: 0.133
fraction unbound [6]: 0.302
SMILES: COc1c(F)cc(-n2c(C(=O)N3CC(F)C3)cc3cccnc32)cc1F
Activity [2]: Non-Toxic

IC50 [7]: 2.4 µM
SMILES: O=C(c1nc2ccccc2n1-c1ccc(Cl)c(Cl)c1)N1CC(F)C1

CLint scaled [3]: 104 mL/min/kg
inhibition [1]: 48%
CLint scaled [4]: 33.3 mL/min/kg
fraction unbound [5]: 0.051
fraction unbound [6]: 0.113
SMILES: O=C(c1cc2cccnc2n1-c1cc(F)c(Cl)c(F)c1)N1CC(F)(F)C1
Activity [2]: Non-Toxic

SMILES: N#Cc1c(F)cc(-n2c(C(=O)NC3CC3)cc3cccnc32)cc1F
CLint scaled [3]: < 49.5 mL/min/kg
CLint scaled [4]: 31.5 mL/min/kg
fraction unbound [5]: 0.096
fraction unbound [6]: 0.235

inhibition [1]: 47%
SMILES: Cc1ccc(-n2c(C(=O)N3CC(F)(F)C3)cc3cccnc32)cc1Cl

CLint scaled [3]: 134 mL/min/kg
CLint scaled [4]: < 23.1 mL/min/kg
fraction unbound [5]: 0.066
fraction unbound [6]: 0.049
SMILES: COc1ncc(-n2c(C(=O)N3CC(F)C3)cc3cccnc32)cc1Cl
Activity [2]: Non-Toxic

CLint scaled [3]: 551 mL/min/kg
CLint scaled [4]: 172 mL/min/kg
fraction unbound [5]: 0.006
fraction unbound [6]: 0.011
SMILES: Cc1ccc(-n2c(C(=O)NC3CC3)cc3cccnc32)cc1Cl

CLint scaled [3]: 157 mL/min/kg
CLint scaled [4]: 179 mL/min/kg
fraction unbound [5]: 0.006
fraction unbound [6]: 0.026
SMILES: O=C(NC1CC1)c1cc2cccnc2n1-c1ccc(Cl)c(Cl)c1
